Data published in paper PMC9227586, “UHPLC-MS Metabolomic Fingerprinting, Antioxidant, and Enzyme Inhibition Activities of Himantormia lugubris from Antarctica” (Metabolites, 2022).
Where two headings read alike, the source gives them in different places. Marks after values point to notes of the source that are not given here.

What was measured:
[1] = Ferric-reducing antioxidant power assay (FRAP); details: absorbance at 593 nm after 5 min
Description: The FRAP test was performed as described previously. A standard curve of the antioxidant Trolox was plotted, then the measurement was performed with 290 µL of extract and its absorbance was measured at 593 nm after 5 min. The results were expressed in mg of Trolox equivalent per g of dry lichen. The experiments were performed in triplicate and the values are expressed as the mean ± SD.

[2] = Oxygen radical absorbance capacity (ORAC) assay
Description: The ORAC assay was performed as previously described. Quantification was performed using a standard curve of the antioxidant Trolox, then the measurement was performed using a solution of the Trolox, blank, and 40 µL of extract in different wells of the microplate reader. The results were obtained by constructing the equations (Trolox/samples vs. fluorescence decay curves) and expressed in μmol Trolox equivalents per grams of dry lichen. The tests were performed in triplicate and the results are reported as the mean ± SD.

[3] = DPPH scavenging activity; details: bleaching of DPPH at 515 nm after 30 min
Description: The potential bleaching of the radical DPPH, using a Synergy HTX microplate reader, was determined by mixing 50 µL of extract or standard with 150 µL of DPPH solution; the determinations were made in triplicate by monitoring the bleaching of DPPH at 515 nm after 30 min of reaction. The results are expressed as IC50 in µg of standard or extract per mL. The data are reported as the mean ± SD.

[4] = target: T1, acetylcholinesterase (AChE, EC 3.1.1.7) (Homo sapiens, UniProt P22303); assay: biochemical; details: 37 °C
T1 construct: purchased Sigma (St. Louis, MO, USA)
Description: (§1) Inhibition of AChE activity was determined according to the Ellman method, as previously reported. The samples (2 mg/mL) were prepared by mixing tris-HCl buffer (50 mM, pH 8.0), enzyme solution (AChE or BChE), and 5-dithio-bis (2-nitrobenzoic acid) (DTNB) at pH 8.0. The reaction was started by adding acetyl-thiocholine iodide (ATCI) or butyryl-thiocholine chloride (BTCl). The absorbance of the extract was measured at 405 nm for 30 min at 37 °C. Three experiments were performed in triplicate in each test and the values are reported as the mean ± SD. The results were expressed as IC50 (µg/mL, the final concentration of the plate ranged from 0.05 to 25 μg/mL).

[5] = target: T2, butyrylcholinesterase (BChE, EC 3.1.1.8) (Homo sapiens, UniProt P06276); assay: biochemical
T2 construct: purchased Sigma (St. Louis, MO, USA)
Description: as §1

[6] = system: tyrosinase; details: cited from earlier work
[7] = system: AChE; details: cited from earlier work
[8] = system: BChE; details: cited from earlier work
[9] = Ellman method, read-out: AChE IC50 (converted)
[10] = Ellman method, 37 °C, read-out: BChE IC50 (converted)

T1 sequence (P22303 32-614, species assumed): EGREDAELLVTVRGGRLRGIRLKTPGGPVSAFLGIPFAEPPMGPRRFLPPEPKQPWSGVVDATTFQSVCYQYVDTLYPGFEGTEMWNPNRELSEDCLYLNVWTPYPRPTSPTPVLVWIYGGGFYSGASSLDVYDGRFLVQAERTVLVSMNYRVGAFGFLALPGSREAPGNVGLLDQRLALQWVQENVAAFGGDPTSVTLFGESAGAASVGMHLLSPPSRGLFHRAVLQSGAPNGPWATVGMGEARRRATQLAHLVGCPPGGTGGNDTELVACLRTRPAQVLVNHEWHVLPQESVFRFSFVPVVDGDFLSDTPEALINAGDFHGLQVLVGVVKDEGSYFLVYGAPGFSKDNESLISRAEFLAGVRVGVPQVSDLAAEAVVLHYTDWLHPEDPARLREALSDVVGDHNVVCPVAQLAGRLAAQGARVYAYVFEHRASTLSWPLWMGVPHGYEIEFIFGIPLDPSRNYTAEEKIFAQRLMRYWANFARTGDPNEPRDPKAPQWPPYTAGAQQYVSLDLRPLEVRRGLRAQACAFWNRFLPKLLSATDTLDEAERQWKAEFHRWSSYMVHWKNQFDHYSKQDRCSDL
T2 sequence (P06276 29-602): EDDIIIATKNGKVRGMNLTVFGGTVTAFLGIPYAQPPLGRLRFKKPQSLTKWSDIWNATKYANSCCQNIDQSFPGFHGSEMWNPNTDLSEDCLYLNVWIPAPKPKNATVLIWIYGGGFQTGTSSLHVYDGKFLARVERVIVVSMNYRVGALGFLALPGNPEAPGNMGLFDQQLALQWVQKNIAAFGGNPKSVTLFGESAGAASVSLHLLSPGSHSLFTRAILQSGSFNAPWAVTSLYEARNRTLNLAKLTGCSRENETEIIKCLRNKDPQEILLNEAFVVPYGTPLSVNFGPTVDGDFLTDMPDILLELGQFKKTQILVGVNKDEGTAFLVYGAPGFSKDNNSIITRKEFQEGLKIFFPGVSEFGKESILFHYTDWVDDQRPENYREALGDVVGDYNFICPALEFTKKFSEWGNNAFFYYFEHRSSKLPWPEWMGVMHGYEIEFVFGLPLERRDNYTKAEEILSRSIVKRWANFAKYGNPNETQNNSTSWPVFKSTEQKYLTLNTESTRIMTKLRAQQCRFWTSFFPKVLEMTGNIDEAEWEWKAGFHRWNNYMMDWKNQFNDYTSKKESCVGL

SMILES | FRAP [1] | ORAC [2] [μmol Trolox/g lichen] | DPPH antiradical activity (IC50) [3] [µg/mL] | IC50 [4, 9] [µM] | IC50 [5, 10] [µM] | further results
Cc1cc(O)c(C=O)c(O)c1 [Atranol, atranol] | 29.32 ± 0.0 ^a μmol Trolox/g lichen | 176.28 ± 0.84 | 21.04 ± 0.02 | 189 | 239 | –
CC(=O)C1=C(O)C=C2Oc3c(C(C)=O)c(O)c(C)c(O)c3[C@@]2(C)C1=O [(+) usnic acid] | – | – | – | – | – | tyrosinase inhibition ([6]; at the dose of 250 μg/mL): 9.1%
C[C@@H]1O[C@@H](O[C@@H]2C(=O)c3c(O)cc(O)cc3O[C@@H]2c2ccc(O)c(O)c2)[C@H](O)[C@H](O)[C@H]1O [isoastilbin] | – | – | – | – | – | AChE inhibition ([7]; at 2.2 µM): 51.70%; BChE inhibition ([8]; at 2.2 µM): 50.10%
Cc1cc(O)c(C=O)c(O)c1C(=O)OCc1cc(O)c(C=O)c(O)c1C(=O)O [Barbatolic acid, barbatolic acid] | 28.10 ± 0.0 ^a μmol Trolox/g lichen | 101.11 ± 0.71 | 62.55 ± 0.01 | 44.6 | 61.4 | –
Cc1cc(OC(=O)c2c(C)cc(O)cc2O)cc(O)c1C(=O)O [lecanoric acid] | – | – | – | – | – | inhibition of tyrosinase activity [6]: 82.69%
Cc1c(O)cc2c(c1O)C(=O)OC2 [5,7-dihydroxy-6-methylphthalide] | 36.91 ± 0.0 μmol Trolox/g lichen | 373.65 ± 1.05 | 12.52 ± 0.02 | 70.5 | 108 | –
Cc1cc(O)c(C=O)c2c1C(=O)Oc1c(COC(=O)/C=C/C(=O)O)c(O)c(C(=O)O)c(C)c1O2 [fumarprotocetraric acid] | – | – | – | – | – | inhibition of tyrosinase activity ([6]; at 0.6 mM): 39.8%
O=C(O)c1cc(O)c(O)c(O)c1 [Gallic acid, reference compound] | 45.5 ± 0.00 μmol Trolox/g lichen | – | 2.24 ± 0.04 | – | – | –
Cc1cc(O)cc(O)c1C(=O)O [orsellinic acid, 2,4-dihydroxy-6-methylbenzoic acid] | – | – | – | – | – | inhibition of tyrosinase activity [6]: 63.35%
CC(=O)c1c(O)c(C)c(O)c2c1OC1=CC(=O)C(C(C)=O)C(=O)C12C (stereo not drawn) [Usnic acid] | 22.4 ± 0.00 μmol Trolox/g lichen | 122.73 ± 1.0 | 55.25 ± 0.04 | – | – | IC50 ([4]; AChE IC50, Ellman method): 6.42 µM; IC50 [5]: 12.7 µM; IC50 ([7]; reported previously): 0.00127 µM; IC50 ([8]; reported previously): 0.0034 µM
